Experiments:
Assay in all cases: relative viability (nuclei count vs DMSO), 5 days (fraction); higher = more cells survive
[1] = compound: CC1=CN=C(N=C1C2=CNC(=C2)C(=O)N[C@H](CO)C3=CC(=CC=C3)Cl)NC4=C(C=C(C=C4)F)Cl [VX-11e] + Cc1nc(NC(=O)N2CCC[C@H]2C(N)=O)sc1-c1ccnc(C(C)(C)C(F)(F)F)c1 [Alpelisib] (partner 2 µM)
Method in brief: (§1)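 Lung cancer cell lines were pin-tool dosed in 1536-well plates on the day after seeding, with either a lone drug or a fixed anchor-drug dose plus five library-drug doses (not always all listed) in √10 steps. Nuclei were counted on 4× images after 5 days. Relative viability is the ratio of treated-well to vehicle-well nuclei counts, with each value a median of duplicate plates.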

[2] = compound: CC1=CN=C(N=C1C2=CNC(=C2)C(=O)N[C@H](CO)C3=CC(=CC=C3)Cl)NC4=C(C=C(C=C4)F)Cl [VX-11e] + CC(=O)c1c(C)c2cnc(Nc3ccc(N4CCNCC4)cn3)nc2n(C2CCCC2)c1=O [Palbociclib] (partner 0.5 µM)
Method in brief: as §1

[3] = compound: CC1=CN=C(N=C1C2=CNC(=C2)C(=O)N[C@H](CO)C3=CC(=CC=C3)Cl)NC4=C(C=C(C=C4)F)Cl [VX-11e] + Nc1nc2[nH]cc(CCc3ccc(C(=O)N[C@@H](CCC(=O)O)C(=O)O)cc3)c2c(=O)[nH]1 [Pemetrexed] (partner 0.2 µM)
Method in brief: as §1

[4] = compound: CC1=CN=C(N=C1C2=CNC(=C2)C(=O)N[C@H](CO)C3=CC(=CC=C3)Cl)NC4=C(C=C(C=C4)F)Cl [VX-11e] + O=C(c1cc(Cc2n[nH]c(=O)c3ccccc23)ccc1F)N1CCN(C(=O)C2CC2)CC1 [Olaparib] (partner 8 µM)
Method in brief: as §1

Row | Cell Line | relative viability ([1]; first compound 0.04 µM) | relative viability ([1]; first compound 0.1265 µM) | relative viability ([1]; first compound 0.4 µM) | relative viability ([1]; first compound 1.265 µM) | relative viability ([1]; first compound 4 µM) | relative viability ([2]; first compound 0.04 µM) | relative viability ([2]; first compound 0.1265 µM) | relative viability ([2]; first compound 0.4 µM) | relative viability ([2]; first compound 1.265 µM) | relative viability ([2]; first compound 4 µM) | relative viability ([3]; first compound 0.04 µM) | relative viability ([3]; first compound 0.1265 µM) | relative viability ([3]; first compound 0.4 µM) | relative viability ([3]; first compound 1.265 µM) | relative viability ([3]; first compound 4 µM) | relative viability ([4]; first compound 0.04 µM) | relative viability ([4]; first compound 0.1265 µM) | relative viability ([4]; first compound 0.4 µM) | relative viability ([4]; first compound 1.265 µM) | relative viability ([4]; first compound 4 µM)
1 | NCI-H661 | 0.403 | 0.831 | 0.606 | 0.586 | 0.511 | 0.375 | 0.406 | 0.348 | 0.402 | 0.379 | 0.814 | 0.912 | 0.901 | 0.88 | 0.756 | 0.779 | 0.777 | 0.719 | 0.724 | 0.61
2 | NCI-H838 | 1.06 | 0.989 | 0.952 | 1.02 | 0.824 | 0.225 | 0.187 | 0.18 | 0.214 | 0.203 | 0.236 | 0.235 | 0.239 | 0.229 | 0.217 | 0.785 | 0.802 | 0.702 | 0.738 | 0.671
3 | NCI-H1355 | 0.725 | 0.687 | 0.88 | 0.572 | 0.302 | 0.432 | 0.382 | 0.382 | 0.319 | 0.216 | 0.904 | 0.99 | 0.99 | 1.01 | 0.526 | 0.735 | 0.759 | 0.655 | 0.554 | 0.395
4 | NCI-H1395 | 1.08 | 0.916 | 0.745 | 1.04 | 0.675 | 0.593 | 0.612 |  | 0.605 | 0.483 | 0.744 | 0.864 |  | 0.96 | 0.533 | 0.424 | 0.461 |  | 0.499 | 0.388
5 | NCI-H1437 | 0.996 | 0.869 | 0.891 | 0.642 | 0.247 | 0.323 | 0.24 | 0.321 | 0.224 | 0.222 | 0.331 | 0.274 | 0.296 | 0.257 | 0.219 | 0.621 | 0.619 | 0.653 | 0.529 | 0.476
6 | NCI-H1651 | 0.955 | 0.882 | 1 | 0.735 | 0.705 | 0.526 | 0.493 | 0.492 | 0.449 | 0.498 | 0.469 | 0.608 | 0.553 | 0.479 | 0.484 | 0.169 | 0.201 | 0.209 | 0.152 | 0.177
7 | NCI-H1666 | 0.706 | 1.01 | 0.8 | 0.461 | 0.333 | 0.616 | 0.632 |  | 0.68 | 0.72 | 0.851 | 0.901 |  | 0.756 | 0.6 | 0.756 | 0.77 |  | 0.742 | 0.649
8 | NCI-H1734 | 0.689 | 0.691 | 0.648 | 0.674 | 0.41 | 0.342 | 0.382 | 0.355 | 0.327 | 0.224 | 0.428 | 0.398 | 0.445 | 0.306 | 0.315 | 0.632 | 0.601 | 0.607 | 0.542 | 0.365
